“Also recorded” adds a separate entry of the source. Like-named read-outs stand apart in the source and are kept apart here.
How the values were obtained:
[1] = target: T1, SARS-CoV-2 Mac1 (Severe acute respiratory syndrome coronavirus 2, UniProt P0DTD1); assay type: binding; details: 100 μM concentration; ± standard deviation of three replicates
[2] = target: T1, SARS-CoV-2 Mac1; assay: biochemical; assay type: binding; details: for drop in potency relative to 1: from IC50 values
[3] = tested on: human macrodomains; assay: FRET profiling against panel of human macrodomains and ARH3; assay type: binding
[4] = target: T2, ALC1 (Homo sapiens, UniProt Q86WJ1); assay: FRET profiling / potency against ALC1 with YFP-GAP(PAR); assay type: binding; details: for inhibition at 1000 µM: read-out: maximum inhibition
T2 sequence (Q86WJ1 704-897 limits assumed): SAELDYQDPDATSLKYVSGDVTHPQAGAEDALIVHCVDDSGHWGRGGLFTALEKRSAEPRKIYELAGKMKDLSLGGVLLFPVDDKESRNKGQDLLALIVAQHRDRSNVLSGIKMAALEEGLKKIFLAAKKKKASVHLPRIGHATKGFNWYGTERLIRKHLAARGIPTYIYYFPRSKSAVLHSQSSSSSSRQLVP

[5] = tested on: viral macrodomains; assay: FRET profiling against panel of other viral macrodomains; assay type: binding; details: up to 100 μM
[6] = target: PARP9 MD1 (Homo sapiens, UniProt Q8IXQ6); assay: FRET profiling / potency against PARP9 MD1; assay type: binding
[7] = target: macrodomains from SARS-CoV (Severe acute respiratory syndrome coronavirus, UniProt P0C6X7)
[8] = tested on: DBT cells; assay: MTT cell viability assay, DBT cells; assay type: cell-based, mouse; details: 24 hours
Method: (§1) DBT, L929, and Calu-3 cells were treated with 27 for 24 hours. Cellular metabolic activity was assessed using a CyQUANT MTT Cell Proliferation Assay (Thermo Fisher Scientific) following manufacturer’s instructions.

[9] = tested on: L929 cells; assay: MTT cell viability assay, L929 cells; assay type: cell-based, mouse; details: 24 hours
Method: as §1

[10] = tested on: SARS-CoV-2; assay: SARS-CoV-2 replication in Calu-3 cells with or without IFNγ, plaque assay; assay type: cell-based; details: 48 hpi
Method: Cells were infected with recombinant MHV-JHM or SARS-CoV-2 at a multiplicity of infection (MOI) of 0.1 PFU/cell with a 45–60 min adsorption phase, unless otherwise stated. Progeny cell-associated and cell-free virus was collected at indicated timepoints and viral titers were determined by plaque assay on Hela-MHVR (MHV) or Vero E6 (SARS-CoV-2) cells. All statistical analysis for viral infections was performed using GraphPad Prism software with an ordinary one-way ANOVA with a Dunnet’s test to correct for multiple comparisons to assess differences between treated and untreated samples. Graphs are expressed as means ± standard errors of the means. The n value represents the number of biological replicates for each group. Significant p values were denoted with asterisks. *, p≤0.05; **, p≤0.01, ***, p≤0.001, ****, p≤0.0001.

[11] = tested on: Calu-3 cells; assay: MTT cell viability assay, Calu-3 cells; assay type: cell-based, human; details: 24 hours
Method: as §1

[12] = target: macrodomains from MERS-CoV (Middle East respiratory syndrome-related coronavirus, UniProt K9N7C7); assay: biochemical; assay type: binding
[13] = IC50, FRET assay, SARS-CoV-2 Mac1, text and Fig. 1C
[14] = FRET assay, SARS-CoV-2 Mac1, text and Fig. 1C, read-out: IC50
[15] = FRET assay, SARS-CoV-2 Mac1, text and Fig. 1C
[16] = IC50 (pIC50 ± SEM): IC50, Table 2, synthesized analogs, n=3
[17] = Table 1, commercial analogs, n=3, given with negative sign, read-out: IC50 (pIC50 ± SEM): pIC50 ± SEM (converted)
[18] = Table 2, synthesized analogs, n=3, read-out: IC50 (pIC50 ± SEM): IC50 (converted)

Chain of macrodomains from MERS-CoV (K9N7C7 1110-1276 limits assumed): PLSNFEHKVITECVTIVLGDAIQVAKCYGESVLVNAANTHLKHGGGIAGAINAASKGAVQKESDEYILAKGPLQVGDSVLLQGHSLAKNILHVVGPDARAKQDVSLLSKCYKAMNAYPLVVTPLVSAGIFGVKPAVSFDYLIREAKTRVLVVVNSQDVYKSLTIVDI

Nc1ncnc2c1ncn2[C@H]1O[C@@H](COP(=O)(O)OP(=O)(O)OC[C@H]2O[C@@H](O)[C@H](O)[C@@H]2O)[C@H](O)[C@@H]1O [ADP-ribose, reference compound]
ΔTm [1]: 2.0 ± 0.14 °C

COC(=O)c1c(NC(=O)C2CC=CCC2C(=O)O)sc2c1CCCCC2 (stereo not shown) [Compound 1, 6-{[3-(methoxycarbonyl)-5,6,7,8-tetrahydro-4H-cyclohepta[b]thiophen-2-yl]carbamoyl}cyclohex-3-ene-1-carboxylic acid]
IC50 [2, 13]: 14 µM | inhibition of human macrodomains ([3]; 10 μM and 100 μM): selective towards Mac1 over all human macrodomains | inhibition at 100 µM [4]: ≥ 50% | IC50 ([4]; partial inhibition only, read-out: IC50): 6.8 µM | inhibition at 1000 µM [4]: 58% | inhibition of other tested viral macrodomains [5]: did not show effective inhibition | IC50 [6]: 64 µM | inhibition at 100 µM ([6]; 100 μM): ≥ 70%

COC(=O)c1c(NC(=O)CCC(=O)O)sc2c1CCCCC2 [Compound 2]
IC50 [2, 14]: 48 µM | drop in potency relative to 1 [2]: 3.5 fold | ΔTm [1]: 0.3 ± 0.12 °C

COC(=O)c1c(NC(=O)c2ccccc2C(=O)O)sc2c1CCCC2 [Compound 3, 2-{[3-(methoxycarbonyl)-4,5,6,7-tetrahydro-1-benzothiophen-2-yl]carbamoyl}benzoic acid]
IC50 [2, 14]: 110 µM | drop in potency relative to 1 [2]: 7 fold | ΔTm [1]: 0.7 ± 0.24 °C

COC(=O)c1c(NC(=O)C2C3CCC(CC3)C2C(=O)O)sc2c1CCCC2 (stereo not shown) [Compound 12]
IC50 [2, 15]: completely abolished the inhibitory effect | IC50 ([2]; Table 1, commercial analogs, n=3, read-out: IC50 (pIC50 ± SEM): IC50 (converted)): > 100 µM

COC(=O)c1c(NC(=O)C2CCCCC2C(=O)O)sc2c1CCCCC2 (stereo not shown) [Compound 15r, 2-{[3-(methoxycarbonyl)-4H,5H,6H,7H,8H-cyclohepta[b]thiophen-2-yl]carbamoyl}cyclohexane-1-carboxylic acid]
IC50 [2, 16]: 6.3 µM | IC50 [2, 13]: 6.5 µM

COC(=O)c1c(NC(=O)C2CCCCC2C(=O)O)sc2c1CCC2 (stereo not shown) [Compound 16]
IC50 [2, 17]: 21.9 µM

COC(=O)c1c(NC(=O)C2CCCCC2C(=O)O)sc2c1CCCC2 (stereo not shown) [Compound 17]
IC50 [2, 17]: 18.6 µM

N#Cc1c(NC(=O)C2CC=CCC2C(=O)O)sc2c1CCCCC2 (stereo not shown) [Compound 21, 6-[(3-cyano-5,6,7,8-tetrahydro-4H-cyclohepta[b]thiophen-2-yl)carbamoyl]cyclohex-3-ene-1-carboxylic acid]
IC50 [2, 15]: inactive | IC50 [2, 18]: > 100 µM

CC(=O)c1c(NC(=O)C2CC=CCC2C(=O)O)sc2c1CCCCC2 (stereo not shown) [Compound 22, 6-[(3-acetyl-5,6,7,8-tetrahydro-4H-cyclohepta[b]thiophen-2-yl)carbamoyl]cyclohex-3-ene-1-carboxylic acid]
IC50 [2, 15]: inactive | IC50 [2, 18]: > 100 µM

COC(=O)c1c(NC(=O)C2CC=CCC2C(=O)OC)sc2c1CCCCC2 (stereo not shown) [Compound 23, Methyl 2-[6-(methoxycarbonyl)cyclohex-3-ene-1-amido]-4H,5H,6H,7H,8H-cyclohepta[b]thiophene-3-carboxylate]
IC50 ([2]; Table 2, synthesized analogs, n=3, given with negative sign, read-out: IC50 (pIC50 ± SEM): pIC50 ± SEM (converted)): 10.7 µM

O=C(O)c1c(NC(=O)C2CCCCC2C(=O)O)sc2c1CCCCC2 (stereo not shown) [Compound 24, 2-[(2-carboxycyclohexane-1-carbonyl)amino]-5,6,7,8-tetrahydro-4H-cyclohepta[b]thiophene-3-carboxylic acid]
IC50 [2, 15]: without inhibitory activity | IC50 [2, 18]: > 100 µM

COC(=O)c1c(NC(=O)[C@H]2CCCC[C@@H]2C(=O)O)sc2c1CCCCC2 [Compound 25, (1S,2S)-2-{[3-(methoxycarbonyl)-4H,5H,6H,7H,8H-cyclohepta[b]thiophen-2-yl]carbamoyl}cyclohexane-1-carboxylic acid]
IC50 [2, 16]: > 100 µM

COC(=O)c1c(NC(=O)[C@@H]2CCCC[C@H]2C(=O)O)sc2c1CCCCC2 [Compound 26, (1R,2R)-2-{[3-(methoxycarbonyl)-4H,5H,6H,7H,8H-cyclohepta[b]thiophen-2-yl]carbamoyl}cyclohexane-1-carboxylic acid]
IC50 [2, 16]: 2.7 µM | IC50 ([2]; IC50 (pIC50 ± SEM): pIC50 ± SEM, Table 2, synthesized analogs, n=3, given with negative sign): 2.75 µM

COC(=O)c1c(NC(=O)[C@@H]2CCCC[C@H]2C(=O)O)sc2c1CCCCCC2 [Compound 27, (1R,2R)-2-{[3-(methoxycarbonyl)-4H,5H,6H,7H,8H,9H-cycloocta[b]thiophen-2-yl]carbamoyl}cyclohexane-1-carboxylic acid]
inhibition of human macrodomains [3]: did not show effective inhibition | IC50 [4]: 3 µM | inhibition at 10 µM [4]: ≥ 50% | inhibition at 100 µM [4]: ≥ 50% | inhibition at 1000 µM [4]: 63% | inhibition % [7]: 64% | cytotoxicity / viability (MTT) [8]: does not affect the viability; also recorded: did not have any cellular cytotoxicity | cytotoxicity / viability (MTT) [9]: does not affect the viability; also recorded: did not have any cellular cytotoxicity | antiviral effect on SARS-CoV-2 ([10]; absence of IFNγ): minimal, if any, antiviral effects | reduction in virus replication ([10]; presence of IFNγ (100 U/ml), 25 μM): 10–15 fold | cytotoxicity / viability (MTT) [11]: does not affect the viability; also recorded: did not lead to any cytotoxicity | IC50 [12]: > 100 µM | inhibition % [12]: 43%

COC(=O)c1c(NC(=O)[C@@H]2CCCC[C@H]2C(=O)OC)sc2c1CCCCCC2 [Compound 28, Methyl 2-[(1R,2R)-2-(methoxycarbonyl)cyclohexaneamido]-4H,5H,6H,7H,8H,9H-cycloocta[b]thiophene-3-carboxylate]
IC50 [2, 15]: completely inactive | IC50 [2, 18]: > 100 µM

From paper doi:10.1101/2023.08.28.555062, “Discovery of 2-amide-3-methylester thiophenes that target SARS-CoV-2 Mac1 and repress coronavirus replication, validating Mac1 as an anti-viral target” (bioRxiv, 2023)
